US10576085B2, “Substituted aminopurine compounds, compositions thereof, and methods of treatment therewith” (Signal Pharmaceuticals, LLC, priority 2016, dated 2020)

Columns and labels:
IL-8 = IL-8 in PBMC culture media (Mesoscale V-Plex Human IL-8); type: cell-based; settings: 0.5 μM
Protocol: The effect of Compound 1 treatment on levels of IL-8 was determined in PBMC culture media. PBMCs were isolated from whole blood and cultured in RPMI media plus 10% FBS. PBMCs were plated at 1×10^6 per milliliter in 10 cm^2 dishes. The PBMCs were treated with 0.1% DMSO or 0.5 μM Compound 1. Treatments were taken down at the designated time points. The culture media (1 mL) was used for IL-8 analysis. The IL-8 analysis was performed with a Mesoscale V-Plex Human IL-8 kit according to the manufacturer's instructions.

LOX-IMVI tumor = assay: LOX-IMVI subcutaneous melanoma xenograft model; type: in vivo, SCID mice; settings: for Tumor volume compared to vehicle control: p<0.001
Protocol: For xenograft model studies human cancer cell lines were injected into SCID (severe combined immunodeficiency) mice. Cancer cell lines were propagated in culture in vitro. Tumor bearing animals were generated by injecting precisely determined numbers of cells into mice. Following inoculation of animals, the tumors were allowed to grow to a certain size prior to randomization. The mice bearing xenograft tumors ranging between pre-determined sizes were pooled together and randomized into various treatment groups. A typical efficacy study design involved administering one or more compounds at various dose levels to tumor-bearing mice. Additionally, reference chemotherapeutic agents (positive control) and negative controls were similarly administered and maintained. Tumor measurements and body weights were taken over the course of the study.
Mice were anesthetized with inhaled isoflurane and then inoculated with LOX-IMVI tumor cells subcutaneously above the right hind leg with 0.1 mL of a single cell suspension in PBS using a sterile 1 mL syringe fitted with a 26-gauge needle. Following inoculation of the animals, tumors were allowed to grow to approximately 75-125 mm^3 or in some cases 250-400 mm^3 prior to randomization of the mice. The tumor of each animal was measured and animals with tumors in the appropriate range were included in the study. Animals from the study pool were then distributed randomly into various cages and the cages were randomly assigned to vehicle, positive control, or test article groups. All of the mice were tagged with metal ear tags on the right ear. A typical group consisted of 8-10 animals. For a typical xenograft study, SCID mice bearing tumors were randomized and dosed with compounds ranging from, for example, 100 mg/kg to 0.1 mg/kg with different dose scheduling, including, but not limited to, qd, q2d, q3d, q5d, q7d and bid. The mice were dosed for 1-4 weeks. Tumors were measured twice a week using calipers and tumor volumes were calculated using the formula of W^2× L/2.
The purpose of this study was to confirm the efficacy of Compound 1 in the LOX-IMVI melanoma xenograft model.
In a separate experiment, Compound 1 was administered orally, QD for 8 days at 0.2, 1, 5, 10, and 15 mg/kg.

[1] = system: MAPK signaling (pRSK1, DUSP4, DUSP6, SPRY2, cyclin D1, c-Myc, YAP); assay: MAPK signaling markers (MSD, Western blot, qPCR) in Colo 205 (BRAF V600E); type: cell-based
Protocol: In a time course experiment, Colo-205 cancer cells were treated with 0.5 μM Compound 1 for various time periods. The effect of Compound 1 on pRSK S380 was measured as described. The effect of Compound 1 on other MAPK pathway markers (DUSP4 and DUSP6) was measured via Western blotting with specific antibodies.
The ability of Compound 1 to inhibit MAPK signaling was assessed by determining the DUSP4 and DUSP6 protein expression. Colon cancer cell line Colo 205 (BRAF V600E) cultures were treated with DMSO or increasing concentrations of Compound 1 for 2, 8 or 24 h. Proteins were extracted from treated cells and analyzed by Western blot using antibodies against DUSP4, DUSP6, cyclin D1, c-Myc, YAP or β-actin. RNAs were extracted using Cell-To-CT kit and quantitative PCR was performed with probes specific for DUSP4, DUSP6, SPRY2, c-Myc and cyclin D1. Specific probes for β-actin were used for normalization.
Compound 1 modulation of MAPK, WNT/β-catenin, and Hippo/YAP pathway markers was evaluated by standard Western blotting. LOX-IMVI, SW48, and Colo-205 cells were plated in 6-well plates at a density of 250,000 cells per well and were allowed to attach overnight. Compound 1 was added to cells at concentrations of 0.03, 0.1, 0.3, 1, and 3 μM for durations of 2, 8, and 24 hours. […] The cell lysates were heated in sodium dodecyl sulfate (SDS)-sample buffer and 40 μg of cell lysate per condition were loaded onto gels and separated using SDS polyacrylamide gel electrophoresis (PAGE). Protein was transferred to nitrocellulose membrane, and immunoblotted with anti DUSP4, DUSP6, cMyc, Cyclin D1, YAP, AXIN2, HDACS (phospho S498), and β-actin antibodies. Membranes were scanned on the Licor Odyssey system.
Compound 1 modulation of MAPK, WNT/β-catenin, and Hippo/YAP pathway genes was evaluated by real-time (RT)-qPCR. […], SW48, and Colo-205 cells were plated in 96-well plates at a density of 20,000 cells per well and were allowed to attach overnight. Compound 1 was added to cells at half log concentrations from 1 nM to 10 μM for durations of 2, 8, and 24 hours. Cells were harvested using the TaqMan Gene Expression Cells-to-CT Kit according to the product manual. Next, RT-PCR was performed and the resulting cDNA was used in qPCR reactions on the ViiA7 Real-Time PCR System (Thermo Fisher Scientific). TaqMan probes were used to monitor changes in DUSP4, DUSP6, SPRY2, MYC, CCND1, AXIN2, CTGF, Cyr61, AREG, and ACTB genes. All genes were normalized to ACTB expression and reported as percentage of DMSO-only control.

[2] = system: IL-2 and IFNγ production by PBMC-derived T cells; assay: T cell activation: compound-treated KARPAS-299 co-cultured with SEB-stimulated PBMC, IL-2 and IFNγ (Mesoscale); type: cell-based
Protocol: To determine if Compound 1 down-regulation of PD-L1 enhances T cell activation, compound-treated KARPAS-299 cancer cells were co-cultured with PBMC-derived T cells stimulated with low concentrations of super antigen (SEB). KARPAS-299 cells were treated with DMSO (D) or Compound 1 at indicated concentrations for 48 h. PBMC from healthy donors were treated with or without 20 ng/ml SEB for 48 h. After wash with PBS, the PBMCs were incubated with the cancer cells for 24 h and the supernatants were collected to measure IL-2 and IFNγ using Mesoscale assays.
Supernatant levels of IL-2 and IFNγ were used as functional markers of T cell activation. […] The increased levels of IL-2 and IFNγ in Compound 1-treated cancer cells were similar to the levels observed with treatment of anti-PD-L1 (Ultra-LEAF™ from Biolegend).

C[C@]1(C(N)=O)CC[C@@H](n2c(Nc3c(Cl)cc(Cl)cc3Cl)nc3cnc(N[C@@H]4CCOC[C@H]4F)nc32)CC1 [Compound 1, cis-4-[2-{[(3S,4R)-3-fluorooxan-4-yl]amino}-8-(2,4,6-trichloroanilino)-9H-purin-9-yl]-1-methyl cyclohexane-1-carboxamide]
IL-8 levels in PBMC culture media (IL-8): inhibit IL-8 levels at different time-points | Tumor regression (LOX-IMVI tumor; 10 mg/kg orally QD 8 days): Tumor regression | Animals tumor free at study end (LOX-IMVI tumor; 15 mg/kg): 1 out of 9 | Animals with tumor regression (LOX-IMVI tumor; 15 mg/kg): 9 out of 9 | Tumor regression (LOX-IMVI tumor; 15 mg/kg orally QD 8 days): Tumor regression | Tumor volume compared to vehicle control (LOX-IMVI tumor; 15 mg/kg): significant tumor volume reduction | Animals tumor free at study end (LOX-IMVI tumor; 30 mg/kg): 1 out of 9 | Animals with tumor regression (LOX-IMVI tumor; 30 mg/kg): 9 out of 9 | Tumor volume compared to vehicle control (LOX-IMVI tumor; 30 mg/kg): significant tumor volume reduction | Antitumor activity (LOX-IMVI tumor; orally, QD for 8 days at 0.2, 1, 5, 10, and 15 mg/kg): Dose-dependent antitumor activity | cyclin D1 and c-Myc RNA and protein levels ([1]; Colo 205): significantly decreased | DUSP4 and DUSP6 protein (Western blot) ([1]; Colo 205 (BRAF V600E), as early as 2 h, sustained through 24 h): significantly reduced | YAP protein ([1]; Colo 205, 24 h): decreased YAP protein | SPRY2 transcription ([1]; Colo 205, qPCR): reduction of SPRY2 transcription in a concentration-dependent manner | Inhibition of ERK targets pRSK1, DUSP4 and DUSP6, time course ([1]; Colo-205, 0.5 μM): sustained inhibition (up to 72 hr) | IL-2 and IFNγ production ([2]; SEB 20 ng/ml, Compound 1-treated KARPAS-299 co-cultured with PBMC): increased levels of both IL-2 and IFNγ production | IL-2 and IFNγ production ([2]; absence of SEB): produced little IL-2 or IFNγ
